Assay results published in patent US8044198B2, “Sirtuin modulating compounds” (Sirtris Pharmaceuticals, Inc., priority 2005, dated 2011).

Molecular target: T1, SIRT1 (Homo sapiens, UniProt Q96EB6)
T1 sequence (Q96EB6 1-747): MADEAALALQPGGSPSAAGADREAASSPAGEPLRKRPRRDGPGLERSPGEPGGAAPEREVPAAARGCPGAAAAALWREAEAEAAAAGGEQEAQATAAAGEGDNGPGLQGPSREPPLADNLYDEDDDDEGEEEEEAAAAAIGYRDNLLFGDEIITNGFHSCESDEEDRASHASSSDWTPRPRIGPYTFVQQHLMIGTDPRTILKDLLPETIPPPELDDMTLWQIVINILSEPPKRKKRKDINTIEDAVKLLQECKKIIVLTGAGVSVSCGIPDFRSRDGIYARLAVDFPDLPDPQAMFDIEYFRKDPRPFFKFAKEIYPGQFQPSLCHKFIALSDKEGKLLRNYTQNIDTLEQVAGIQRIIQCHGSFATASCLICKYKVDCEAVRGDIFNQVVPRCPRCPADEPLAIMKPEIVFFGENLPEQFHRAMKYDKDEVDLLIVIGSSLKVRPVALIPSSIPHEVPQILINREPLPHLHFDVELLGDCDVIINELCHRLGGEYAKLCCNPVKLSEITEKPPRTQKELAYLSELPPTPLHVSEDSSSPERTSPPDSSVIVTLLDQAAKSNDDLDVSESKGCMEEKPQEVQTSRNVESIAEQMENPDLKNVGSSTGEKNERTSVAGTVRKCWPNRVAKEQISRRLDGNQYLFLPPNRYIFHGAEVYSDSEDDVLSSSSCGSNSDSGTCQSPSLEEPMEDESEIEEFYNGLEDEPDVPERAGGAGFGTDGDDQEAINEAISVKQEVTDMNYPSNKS
Assay: SIRT1 mass spectrometry (MS) based deacetylation assay; as to FOLD ACT. MS: test concentration or dose not given here
Assay type: biochemical
Settings: for EC50: SIRT1 activation, mass spectrometry assay, read-out: ED50 MS ASSAY; for FOLD ACT. MS: fold activation of SIRT1, mass spectrometry assay

| EC50 | FOLD ACT. MS | SMILES |
| --- | --- | --- |
| 5 to 50 µM | B (B (Fold Activation <250%)) | COc1ccc(C(=O)Nc2ccccc2-c2cn3c(CN4CCNCC4)csc3n2)c(OC)c1 [Compound 326] |
| 5 to 50 µM | A (A (Fold activation >250%)) | CN(C)c1cccc(C(=O)Nc2ccccc2-c2cn3c(CN4CCNCC4)csc3n2)c1 [Compound 327] |
| 5 to 50 µM | B (B (Fold Activation <250%)) | COc1ccc(C(=O)Nc2cccc(-c3cccnc3)c2)c(OC)c1 [Compound 331] |
| 5 to 50 µM | B (B (Fold Activation <250%)) | COc1ccc(C(=O)Nc2cccc(-c3cccnc3)c2)cc1OC [Compound 332] |
| 5 to 50 µM | B (B (Fold Activation <250%)) | COc1ccc(C(=O)Nc2ccccc2-c2cccs2)c(OC)c1 [Compound 334] |
| 5 to 50 µM | B (B (Fold Activation <250%)) | COc1ccc(C(=O)Nc2ccccc2-c2cccs2)cc1OC [Compound 335] |
| < 5 µM | B (B (Fold Activation <250%)) | COc1cc(C(=O)Nc2ccc(-c3nc4ccncc4o3)cc2)cc(OC)c1OC [Compound 341] |
| 5 to 50 µM | B (B (Fold Activation <250%)) | COc1ccc(C(=O)Nc2cccc(-c3nc4cnccc4o3)c2)c(OC)c1OC [Compound 343] |
| < 5 µM | B (B (Fold Activation <250%)) | COc1ccc(C(=O)Nc2cccc(-c3nc4cnccc4o3)c2)cc1OC [Compound 344] |
| < 5 µM | B (B (Fold Activation <250%)) | COc1cc(C(=O)Nc2ccc(-c3nc4cnccc4o3)cc2)cc(OC)c1OC [Compound 347] |
| 51 to 100 µM | B (B (Fold Activation <250%)) | COc1ccc(C(=O)Nc2ccccc2-c2nc3ccccn3c2CN(C)C)cc1OC [Compound 350] |
| 5 to 50 µM | B (B (Fold Activation <250%)) | COc1cc(C(=O)Nc2ccccc2-c2nc3ccccn3c2CN(C)C)cc(OC)c1OC [Compound 351] |
| 5 to 50 µM | B (B (Fold Activation <250%)) | O=C(Nc1ccccc1-c1nc2ccncc2s1)c1ccc(Oc2ccccc2)nc1 [Compound 392] |
| 5 to 50 µM | B (B (Fold Activation <250%)) | CN(C)c1cccc2c(S(=O)(=O)Nc3cccc(-c4nc5ccncc5s4)c3)cccc12 [Compound 398] |
| 5 to 50 µM | B (B (Fold Activation <250%)) | O=c1[nH]c2ccc(S(=O)(=O)Nc3cccc(-c4nc5ccncc5s4)c3)cc2o1 [Compound 399] |
| < 5 µM | B (B (Fold Activation <250%)) | COc1cc(C(=O)Nc2ccccc2-c2nc3cnccc3o2)cc(OC)c1OC [Compound 405] |
| < 5 µM | B (B (Fold Activation <250%)) | CN(C)c1ccc(C(=O)Nc2ccccc2-c2nc3cnccc3o2)cc1 [Compound 407] |
| 51 to 100 µM | B (B (Fold Activation <250%)) | CN(C)c1cccc(C(=O)Nc2ccc(-c3nc4ccncc4o3)cc2)c1 [Compound 408] |
| 5 to 50 µM | B (B (Fold Activation <250%)) | COc1ccc(C(=O)Nc2ccccc2-c2nc3cnccc3s2)c(OC)c1OC [Compound 411] |
| 51 to 100 µM | B (B (Fold Activation <250%)) | COc1ccc(C(=O)Nc2ccccc2-c2cnc3ccccc3c2)c(OC)c1 [Compound 413] |
| 5 to 50 µM | B (B (Fold Activation <250%)) | COc1ccc(C(=O)Nc2ccccc2-c2cnc3ccccc3c2)cc1OC [Compound 414] |
| < 5 µM | B (B (Fold Activation <250%)) | COc1ccc(C(=O)Nc2ccc(-c3nc4cnccc4o3)s2)cc1OC [Compound 423] |
| < 5 µM | B (B (Fold Activation <250%)) | CN(C)c1cccc(C(=O)Nc2ccc(-c3nc4cnccc4o3)s2)c1 [Compound 427] |

More lines, now with the values behind:

| SMILES | EC50 | FOLD ACT. MS |
| --- | --- | --- |
| O=C(Nc1ccccc1-c1cn2c(CN3CCNCC3)csc2n1)c1ccccc1 [Compound 328] | 51 to 100 µM | A (A (Fold activation >250%)) |
| O=C(Nc1ccccc1-c1cn2c(CN3CCNCC3)csc2n1)c1ccc2c(c1)OCO2 [Compound 329] | 5 to 50 µM | A (A (Fold activation >250%)) |
| N#Cc1cccc(C(=O)Nc2ccccc2-c2cn3c(CN4CCNCC4)csc3n2)c1 [Compound 330] | 5 to 50 µM | A (A (Fold activation >250%)) |
| COc1cc(C(=O)Nc2cccc(-c3cccnc3)c2)cc(OC)c1OC [Compound 333] | 5 to 50 µM | B (B (Fold Activation <250%)) |
| O=C(Nc1ccccc1-c1cn2c(CN3CCNCC3)csc2n1)c1ccc2occc2c1 [Compound 338] | 5 to 50 µM | A (A (Fold activation >250%)) |
| COc1cc(C(=O)Nc2ccccc2-c2nc3ccccn3c2CN2CCNCC2)cc(OC)c1OC [Compound 362] | 51 to 100 µM | B (B (Fold Activation <250%)) |
| COc1ccc(C(=O)Nc2ccccc2-c2nc3ccccn3c2CN2CCNCC2)cc1OC [Compound 364] | > 150 µM | A (A (Fold activation >250%)) |
| Cc1nn(-c2ccccc2)nc1C(=O)Nc1ccccc1-c1nc2ccncc2s1 [Compound 390] | 5 to 50 µM | B (B (Fold Activation <250%)) |
| O=C(Nc1ccccc1-c1nc2ccncc2s1)c1cnccn1 [Compound 391] | 5 to 50 µM | B (B (Fold Activation <250%)) |
| CC(CC(=O)Nc1cccc(-c2nc3ccncc3s2)c1)Oc1ccccc1 (centres unmarked) [Compound 396] | 5 to 50 µM | B (B (Fold Activation <250%)) |
| COc1ccc(C(=O)Nc2cccc(-c3nc4cnccc4s3)c2)c(OC)c1OC [Compound 401] | 5 to 50 µM | B (B (Fold Activation <250%)) |
| CN(C)c1cccc(C(=O)Nc2cccc(-c3nc4cnccc4s3)c2)c1 [Compound 402] | < 5 µM | B (B (Fold Activation <250%)) |
| CN(C)c1ccc(C(=O)Nc2cccc(-c3nc4cnccc4s3)c2)cc1 [Compound 403] | < 5 µM | B (B (Fold Activation <250%)) |
| COc1cc(OC)cc(C(=O)Nc2ccccc2-c2nc3cnccc3o2)c1 [Compound 404] | < 5 µM | B (B (Fold Activation <250%)) |
| CN(C)c1cccc(C(=O)Nc2ccccc2-c2nc3cnccc3o2)c1 [Compound 406] | < 5 µM | B (B (Fold Activation <250%)) |
| COc1cc(C(=O)Nc2ccccc2-c2cnc3ccccc3c2)cc(OC)c1OC [Compound 415] | 51 to 100 µM | B (B (Fold Activation <250%)) |
| COc1ccc(C(=O)Nc2ccccc2-c2nc3cnccc3o2)c(OC)c1OC [Compound 421] | 5 to 50 µM | B (B (Fold Activation <250%)) |
| COc1ccc(C(=O)Nc2ccc(-c3nc4cnccc4o3)s2)c(OC)c1 [Compound 422] | 5 to 50 µM | B (B (Fold Activation <250%)) |
| COc1cc(C(=O)Nc2ccc(-c3nc4cnccc4o3)s2)cc(OC)c1OC [Compound 426] | < 5 µM | B (B (Fold Activation <250%)) |
| COc1ccc(C(=O)Nc2cccc(-c3nc4ccncc4o3)c2)c(OC)c1 [Compound 429] | < 5 µM | B (B (Fold Activation <250%)) |
